According to patent US5006528A, “Carbostyril derivatives” (Otsuka Pharmaceutical Co., Ltd., priority 1988, dated 1991):

Each compound was assayed on α-blocking activity (assay: Anti-epinephrine lethal activity in mouse). Settings: Mus musculus, po, 4 h, read-out: Anti-epinephrine activity (ED50 mg/kg) (B).
Format: in vivo
`O=C1CCc2ccc(OCCCCN3CCN(c4cccc(Cl)c4Cl)CC3)cc2N1` [Test compound 1, 7-{4-[4-(2,3-dichlorophenyl)-1-piperazinyl]butoxy}-3,4-dihydrocarbostyril] gave an ED50 of over 128 mg/kg.

Same assay, conditions: mouse, oral, 1 hour before lethal dose (1.5 mg/kg) of epinephrine intravenously; survival at 4 hours; read-out: Anti-epinephrine activity (ED50 mg/kg) (B)
`O=C1CCc2ccc(OCCCCN3CCN(c4cc(Cl)cc(Cl)c4Cl)CC3)cc2N1` [Test compound 7] was tested, and the ED50 was over 128 mg/kg. `Cc1cccc(N2CCN(CCCCOc3ccc4c(c3)NC(=O)CC4)CC2)c1Br` [Test compound 4] was tested, and the ED50 was over 64 mg/kg. Work on `O=C1CCc2ccc(OCCCCN3CCN(c4cc(Cl)cc(Cl)c4)CC3)cc2N1` [Test compound 5] yielded an ED50 of over 128 mg/kg. `Cc1c(N2CCN(CCCCOc3ccc4c(c3)NC(=O)CC4)CC2)cccc1[N+](=O)[O-]` [Test compound 2] showed an ED50 of over 128 mg/kg. For `Cc1cccc(N2CCN(CCCCOc3ccc4c(c3)NC(=O)CC4)CC2)c1Cl` [Test compound 3], the ED50 was over 64 mg/kg. With `O=C1CCc2ccc(OCCCCN3CCN(c4cccc(Br)c4Br)CC3)cc2N1` [Test compound 9] the ED50 was over 256 mg/kg. Work on `O=c1ccc2ccc(OCCCCN3CCN(c4cccc(Cl)c4Cl)CC3)cc2[nH]1` [Test compound 10] yielded an ED50 of over 128 mg/kg. `COc1ccccc1N1CCN(CCCCOc2ccc3c(c2)NC(=O)CC3)CC1` [Test compound 8] was tested, and the ED50 was 2.5 mg/kg. Work on `CCOc1ccccc1N1CCN(CCCCOc2ccc3ccc(=O)[nH]c3c2)CC1` [Test compound 11] yielded an ED50 of 3.8 mg/kg.

These compounds were tested on dopaminergic receptor (assay: Anti-apomorphine activity in mouse). Settings: Mus musculus, po, 1 h, read-out: Anti-apomorphine activity (ED50 mg/kg) (A).
`O=C1CCc2ccc(OCCCCN3CCN(c4cc(Cl)cc(Cl)c4Cl)CC3)cc2N1` [Test compound 7] showed an ED50 of 0.4 mg/kg. Work on `Cc1cccc(N2CCN(CCCCOc3ccc4c(c3)NC(=O)CC4)CC2)c1Br` [Test compound 4] yielded an ED50 of 0.4 mg/kg. In the case of `O=C1CCc2ccc(OCCCCN3CCN(c4cccc(Cl)c4Cl)CC3)cc2N1` [Test compound 1, 7-{4-[4-(2,3-dichlorophenyl)-1-piperazinyl]butoxy}-3,4-dihydrocarbostyril], the ED50 was 0.18 mg/kg. For `O=C1CCc2ccc(OCCCCN3CCN(c4cc(Cl)cc(Cl)c4)CC3)cc2N1` [Test compound 5], the ED50 was 0.5 mg/kg. `Cc1c(N2CCN(CCCCOc3ccc4c(c3)NC(=O)CC4)CC2)cccc1[N+](=O)[O-]` [Test compound 2] was tested, and the ED50 was 0.3 mg/kg. Work on `Cc1cccc(N2CCN(CCCCOc3ccc4c(c3)NC(=O)CC4)CC2)c1Cl` [Test compound 3] yielded an ED50 of 0.4 mg/kg. With `O=C1CCc2ccc(OCCCCN3CCN(c4cccc(Br)c4Br)CC3)cc2N1` [Test compound 9] the ED50 was 0.6 mg/kg. For `O=c1ccc2ccc(OCCCCN3CCN(c4cccc(Cl)c4Cl)CC3)cc2[nH]1` [Test compound 10], the ED50 was 0.36 mg/kg. Work on `COc1ccccc1N1CCN(CCCCOc2ccc3c(c2)NC(=O)CC3)CC1` [Test compound 8] yielded an ED50 of 0.2 mg/kg. With `CCOc1ccccc1N1CCN(CCCCOc2ccc3ccc(=O)[nH]c3c2)CC1` [Test compound 11] the ED50 was 0.12 mg/kg.

Same assay, conditions: ratio of anti-epinephrine ED50 (B) to anti-apomorphine ED50 (A)
For `O=C1CCc2ccc(OCCCCN3CCN(c4cc(Cl)cc(Cl)c4Cl)CC3)cc2N1` [Test compound 7], the “(B)/(A)” value was over 320. `Cc1cccc(N2CCN(CCCCOc3ccc4c(c3)NC(=O)CC4)CC2)c1Br` [Test compound 4] was tested, and the “(B)/(A)” value was over 160. For `O=C1CCc2ccc(OCCCCN3CCN(c4cccc(Cl)c4Cl)CC3)cc2N1` [Test compound 1, 7-{4-[4-(2,3-dichlorophenyl)-1-piperazinyl]butoxy}-3,4-dihydrocarbostyril], the “(B)/(A)” value was over 711. For `O=C1CCc2ccc(OCCCCN3CCN(c4cc(Cl)cc(Cl)c4)CC3)cc2N1` [Test compound 5], the “(B)/(A)” value was over 256. With `Cc1c(N2CCN(CCCCOc3ccc4c(c3)NC(=O)CC4)CC2)cccc1[N+](=O)[O-]` [Test compound 2] the “(B)/(A)” value was over 426.7. In the case of `Cc1cccc(N2CCN(CCCCOc3ccc4c(c3)NC(=O)CC4)CC2)c1Cl` [Test compound 3], the “(B)/(A)” value was over 160. `O=C1CCc2ccc(OCCCCN3CCN(c4cccc(Br)c4Br)CC3)cc2N1` [Test compound 9] was tested, and the “(B)/(A)” value was over 426.7. `O=c1ccc2ccc(OCCCCN3CCN(c4cccc(Cl)c4Cl)CC3)cc2[nH]1` [Test compound 10] was tested, and the “(B)/(A)” value was over 355. In the case of `COc1ccccc1N1CCN(CCCCOc2ccc3c(c2)NC(=O)CC3)CC1` [Test compound 8], the “(B)/(A)” value was 12.5. In the case of `CCOc1ccccc1N1CCN(CCCCOc2ccc3ccc(=O)[nH]c3c2)CC1` [Test compound 11], the “(B)/(A)” value was 31.6.
